The subject of data set [1] is MCF7, MDA-MB231, MCF10A, and primary cells. Format: cell-based, human.
Data set [2] relates to breast cancer and fibrocystic cell lines. In words: qRT-PCR gene expression analysis. Format: cell-based, human. Particulars: molecular iodine treatment. The method, then:
An in vitro study was performed to assess the effect of molecular iodine in breast cancer and fibrocystic breast cell lines relative to the effects in human mammary epithelial cells (HMEC)(“primary cells”). The study measured gene expression for key markers in each of the cell lines following in vitro addition to the cells of cell media mixtures that comprised iodine species.
As mentioned in the previous paragraph, each of the four cell lines described in the previous paragraph was added to a sample of each of the six cell media mixtures CM1 to CM6. As an untreated control, one sample for each cell line was mixed with media only. Real-time reverse transcription polymerase chain reaction (qRT-PCR) was used to measure several key mRNA markers for apoptosis and cell growth in breast tissue for each combination of cell line and cell media mixture. The measured markers for cell growth were Cyclin D1, Cyclin E1, Cyclin B1, CDK2, and CDKN1B. The measured markers for apoptosis were BCL2 and Caspase 3. Cyclin D1 is required for progression through the G1 phase of the cell cycle. Cyclin E1 is required for cell cycle G1/S transition. Cyclin B1 is involved in the early events of mitosis, such as chromosome condensation, nuclear envelop breakdown, and spindle pole assembly. CDK2 is required for the transition from G1 to S phase and binding with Cyclin A is required to progress through the S phase. CDKN1B binds to and prevents the activation of cyclin E-CDK2 or Cyclin D-CDK4 complexes, and thus controls the cell cycle progression at G1. BCL2 plays an important role in promoting cellular survival and inhibiting the actions of pro-apoptotic proteins. Caspase 3 plays a central role in the execution phase of cell apoptosis. […] Table 4 presents the data normalized to the corresponding data for the primary cells when added to CM6.
BCL-2, an inhibitor of cell death, was increased, while expression of caspase-3 was decreased.
On the technique in general: Real-time PCR tracks product formation cycle by cycle.

Data set [3] has as its system fibrocystic breast condition. Particulars: about 3 to about 12 mg of molecular iodine per day; clinical trials (Kessler 2004; Ghent 1993); cited from earlier work.
For data set [4] the following is noted: Aceves et al. 2013; cited from earlier work.
The conditions of data set [5]: Aceves et al. 2013; cited from earlier work. The source holds these as a separate data set.

`II` [molecular iodine]: the “susceptibility of breast cancer cell lines compared to primary cells (cell death)” value in data set [1] (24 hours, FIG. 3) is “more susceptible”. The “effects on cell growth in both breast cancer and FBC” value in data set [2] is listed as “potent inhibitory effects”. Further, in data set [2] (quantitative RT-PCR), the BCL-2 expression result is “increased”, the “Cyclin B expression levels” value is “No significant changes”, the “expression of caspase-3” value is given as “decreased” and the “expression of cell cycle genes controlling G1-S phase transition” value is recorded as “largely up-regulated”. In data set [2] (quantitative RT-PCR), the “expression of nuclear hormone receptor PPAR-α” value was “up-regulated” and the “expression of nuclear hormone receptor PPAR-γ” value is “up-regulated”. For the same compound, the “treatment of fibrocystic breast condition” value in data set [3] was “effective”. The “difference in uptake in the thyroid between molecular iodine and iodide” value in data set [4] is recorded as 3-4 fold. Further, the “uptake difference between molecular iodine and iodide in the breast” value in data set [5] is reported as “small uptake difference”.
`[I-].[K+]` [CM3, potassium iodide, reference compound]: the “selectivity for apoptosis and cell proliferation between cancerous or fibrocystic cells and healthy human mammary epithelial cells” value in data set [1] is recorded as “not present”.

The values above are taken from patent US20170304359A1, “ORAL IODINE DOSAGE FORM” (priority 2016, published 2017).
